COc1cc2c(cc1OC)C(=O)CC2
solubility (mole fraction)
Conditions	283.15 K	288.15 K	293.15 K	298.15 K	303.15 K	308.15 K	313.15 K	318.15 K	323.15 K
in 2-butanone	0.0514	0.0623	0.0746	0.0891	0.105	0.125	0.149	0.177	0.208
in acetone	0.0486	0.0596	0.071	0.0834	0.101	0.122	0.146	0.173	0.2
in ethanol	0.00826	0.0112	0.0141	0.0193	0.0242	0.0317	0.0412	0.0519	0.0636
in ethyl acetate	0.0389	0.0492	0.059	0.0697	0.0842	0.101	0.122	0.147	0.171
in isobutanol	0.0123	0.0161	0.0212	0.0288	0.0385	0.0493	0.0646	0.0806	0.102
in isopropanol	0.00596	0.00802	0.0108	0.0146	0.0198	0.0269	0.0354	0.0455	0.0588
in isopropyl acetate	0.0264	0.0329	0.0396	0.0485	0.0581	0.0691	0.0801	0.0933	0.11
in methanol	0.0097	0.0124	0.0171	0.0238	0.0317	0.0418	0.0547	0.071	0.0902
in methyl acetate	0.0426	0.053	0.0665	0.0793	0.0986	0.118	0.139	0.159	0.185
in n-butanol	0.0118	0.0155	0.02	0.0268	0.0352	0.0451	0.0583	0.0739	0.0925
in n-butyl acetate	0.025	0.0294	0.0359	0.0428	0.0503	0.0593	0.0695	0.0795	0.0897
in n-pentanol	0.0115	0.0156	0.0216	0.0278	0.0386	0.0509	0.0659	0.0827	0.104
in n-propanol	0.00925	0.0119	0.0158	0.0206	0.0281	0.0356	0.0457	0.0579	0.0695
in n-propyl acetate	0.034	0.0424	0.05	0.0596	0.0694	0.0821	0.0962	0.109	0.129
in sec-butanol	0.0105	0.0147	0.0199	0.0272	0.0357	0.0461	0.0612	0.0766	0.0943
